Laboratory results taken from patent publication US11155539B2, “4-pyridinylmethyl-morpholine derivatives and the use thereof as medicament” (Boehringer Ingelheim International GmbH, priority 2018, dated 2021).

Legend:
NMDA NR1/NR2B receptor = molecular target: T1, NMDA NR1/NR2B receptor (Homo sapiens, UniProt Q05586+Q13224); experiment: In vitro NMDA NR1/NR2B cell assay (FLIPR, intracellular calcium induced by glycine/glutamate); format: cell-based; conditions: HEK293 cells expressing NMDA NR1/NR2B; 20 μM glycine, 1 μM glutamate; read-out: IC50 (in vitro NR2B affinity, FLIPR assay)
T1 construct: host or cells: HEK293, tetracycline-inducible expression
How it was run: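 HEK293 cells with tetracycline-induced NR1/NR2B, induced 48 h, loaded with Fluo-8 for 60 min at room temperature, stimulated with 20 μM glycine plus 1 μM glutamate (final) in HEPES buffer pH 7.4. Compound added 2 min later at 0.9% DMSO; fluorescence at ~5 min normalised to DMSO and 1 μM reference NAM controls, IC50 by 4-parameter fit.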

Nav1.6 = Nav1.6 (Homo sapiens, UniProt Q9UQD0); experiment: Nav 1.6 inhibition, IonWorks Quattro electrophysiology; format: cell-based; conditions: for inhibition at 1 µM / inhibition at 5 µM: normalized to vehicle control (0%) and maximal inhibition control (100%)
How it was run: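 Human Nav1.6 currents recorded on IonWorks Quattro with amphotericin B (200 μg/ml) perforated access; compounds at final 1 and 5 μM in 0.3% DMSO. Cells held at −120 mV, prepulsed to 0 mV for 2500 ms, 10 ms recovery at −120 mV, then 20 ms test pulse to 0 mV; values are normalized percentage inhibition.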

Chain of Nav1.6 (Q9UQD0 whole entry): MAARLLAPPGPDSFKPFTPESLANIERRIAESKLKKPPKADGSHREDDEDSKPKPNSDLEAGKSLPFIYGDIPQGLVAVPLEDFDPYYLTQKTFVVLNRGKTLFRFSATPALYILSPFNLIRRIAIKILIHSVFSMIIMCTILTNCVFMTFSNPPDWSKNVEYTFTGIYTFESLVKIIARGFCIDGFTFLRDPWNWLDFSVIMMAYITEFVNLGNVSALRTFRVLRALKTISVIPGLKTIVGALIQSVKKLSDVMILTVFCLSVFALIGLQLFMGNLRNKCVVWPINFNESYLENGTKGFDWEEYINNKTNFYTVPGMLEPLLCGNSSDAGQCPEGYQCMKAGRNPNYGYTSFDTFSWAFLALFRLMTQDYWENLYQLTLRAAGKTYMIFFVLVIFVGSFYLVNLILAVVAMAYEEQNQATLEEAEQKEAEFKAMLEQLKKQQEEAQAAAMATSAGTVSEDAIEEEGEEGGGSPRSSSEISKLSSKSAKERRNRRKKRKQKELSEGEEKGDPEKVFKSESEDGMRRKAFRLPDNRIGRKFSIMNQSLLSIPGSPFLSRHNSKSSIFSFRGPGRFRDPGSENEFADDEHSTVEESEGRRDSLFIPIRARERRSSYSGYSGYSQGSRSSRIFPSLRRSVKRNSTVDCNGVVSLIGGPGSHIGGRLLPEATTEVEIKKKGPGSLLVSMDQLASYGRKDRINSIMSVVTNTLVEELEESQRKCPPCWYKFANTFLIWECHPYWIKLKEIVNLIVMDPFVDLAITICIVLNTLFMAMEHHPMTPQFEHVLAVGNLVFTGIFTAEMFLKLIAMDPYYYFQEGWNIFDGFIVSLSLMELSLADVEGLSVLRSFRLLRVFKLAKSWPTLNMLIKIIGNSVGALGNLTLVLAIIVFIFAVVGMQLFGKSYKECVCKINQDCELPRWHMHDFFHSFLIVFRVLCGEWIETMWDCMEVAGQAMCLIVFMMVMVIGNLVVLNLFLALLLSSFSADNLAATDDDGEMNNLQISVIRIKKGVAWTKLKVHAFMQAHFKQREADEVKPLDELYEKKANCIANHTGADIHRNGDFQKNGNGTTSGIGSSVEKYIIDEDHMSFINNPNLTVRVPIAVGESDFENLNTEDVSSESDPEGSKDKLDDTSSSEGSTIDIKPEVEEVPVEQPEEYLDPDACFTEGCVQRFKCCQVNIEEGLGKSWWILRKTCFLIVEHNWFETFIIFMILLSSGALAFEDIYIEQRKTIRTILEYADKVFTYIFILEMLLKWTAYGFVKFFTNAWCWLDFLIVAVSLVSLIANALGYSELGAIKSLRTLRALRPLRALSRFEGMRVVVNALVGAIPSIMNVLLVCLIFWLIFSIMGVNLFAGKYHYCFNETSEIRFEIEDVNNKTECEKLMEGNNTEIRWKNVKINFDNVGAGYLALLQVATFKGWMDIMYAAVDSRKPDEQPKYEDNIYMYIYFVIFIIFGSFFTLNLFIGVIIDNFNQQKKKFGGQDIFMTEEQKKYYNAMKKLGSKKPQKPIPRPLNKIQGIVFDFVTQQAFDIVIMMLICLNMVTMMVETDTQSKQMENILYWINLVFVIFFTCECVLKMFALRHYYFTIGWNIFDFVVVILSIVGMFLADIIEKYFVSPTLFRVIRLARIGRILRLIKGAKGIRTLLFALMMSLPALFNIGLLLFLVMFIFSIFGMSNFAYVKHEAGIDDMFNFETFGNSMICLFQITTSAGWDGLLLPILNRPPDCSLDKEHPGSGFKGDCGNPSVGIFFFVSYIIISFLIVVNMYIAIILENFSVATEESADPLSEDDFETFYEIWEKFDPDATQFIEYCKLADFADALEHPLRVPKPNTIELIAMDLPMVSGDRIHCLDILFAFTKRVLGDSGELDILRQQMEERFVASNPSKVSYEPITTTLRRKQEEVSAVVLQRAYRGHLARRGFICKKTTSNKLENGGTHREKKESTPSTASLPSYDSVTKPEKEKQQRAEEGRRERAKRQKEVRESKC
T1 sequence (Q13224 27-1484, other chains not shown): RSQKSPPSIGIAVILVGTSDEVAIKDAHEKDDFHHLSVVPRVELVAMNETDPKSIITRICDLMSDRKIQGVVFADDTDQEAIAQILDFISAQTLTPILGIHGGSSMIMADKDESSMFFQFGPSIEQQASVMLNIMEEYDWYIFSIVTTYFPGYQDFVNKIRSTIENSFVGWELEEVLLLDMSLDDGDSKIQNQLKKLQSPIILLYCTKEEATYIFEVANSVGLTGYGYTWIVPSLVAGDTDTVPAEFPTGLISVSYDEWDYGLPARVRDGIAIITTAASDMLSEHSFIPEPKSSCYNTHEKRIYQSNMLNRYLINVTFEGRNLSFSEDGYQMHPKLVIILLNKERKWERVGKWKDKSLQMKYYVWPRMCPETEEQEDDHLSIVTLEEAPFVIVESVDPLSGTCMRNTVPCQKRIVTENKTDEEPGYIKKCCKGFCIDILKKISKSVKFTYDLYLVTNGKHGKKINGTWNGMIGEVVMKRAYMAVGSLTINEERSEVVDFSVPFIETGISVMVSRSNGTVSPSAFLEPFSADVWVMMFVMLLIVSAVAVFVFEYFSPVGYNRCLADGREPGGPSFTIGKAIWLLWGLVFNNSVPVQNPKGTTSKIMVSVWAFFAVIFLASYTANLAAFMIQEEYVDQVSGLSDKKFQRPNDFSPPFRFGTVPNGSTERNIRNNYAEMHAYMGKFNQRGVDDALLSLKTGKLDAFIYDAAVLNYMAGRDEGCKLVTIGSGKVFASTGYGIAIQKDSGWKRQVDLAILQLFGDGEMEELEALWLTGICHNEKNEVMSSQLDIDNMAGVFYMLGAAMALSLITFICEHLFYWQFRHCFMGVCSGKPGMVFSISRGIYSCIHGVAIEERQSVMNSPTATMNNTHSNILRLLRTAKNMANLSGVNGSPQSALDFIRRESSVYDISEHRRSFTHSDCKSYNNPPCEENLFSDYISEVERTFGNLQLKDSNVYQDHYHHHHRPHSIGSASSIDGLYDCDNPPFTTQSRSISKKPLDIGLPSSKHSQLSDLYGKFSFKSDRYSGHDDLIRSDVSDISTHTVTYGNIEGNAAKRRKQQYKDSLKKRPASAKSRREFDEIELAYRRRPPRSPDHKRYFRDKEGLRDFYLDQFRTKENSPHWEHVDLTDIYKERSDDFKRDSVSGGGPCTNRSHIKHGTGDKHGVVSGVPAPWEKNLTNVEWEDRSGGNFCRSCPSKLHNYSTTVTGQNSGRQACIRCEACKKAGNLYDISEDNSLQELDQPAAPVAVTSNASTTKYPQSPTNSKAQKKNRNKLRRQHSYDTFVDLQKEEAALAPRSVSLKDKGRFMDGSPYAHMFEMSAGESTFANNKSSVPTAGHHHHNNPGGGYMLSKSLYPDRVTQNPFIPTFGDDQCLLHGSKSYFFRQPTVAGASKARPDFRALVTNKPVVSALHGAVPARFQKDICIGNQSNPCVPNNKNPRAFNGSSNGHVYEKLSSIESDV

| Compound | IC50 (NMDA NR1/NR2B receptor) [nM] | inhibition at 1 µM (Nav1.6) [%] | inhibition at 5 µM (Nav1.6) [%] | significant inhibition of the Nav 1.6 channel (in words) (Nav1.6; at 5 μM) |
| --- | --- | --- | --- | --- |
| CNC(=O)[C@@H]1CN(Cc2ccc(Oc3ccc(F)cc3)cn2)CCO1 [Example 30] | 454 | 7.6 | 6.8 |  |
| CNC(=O)[C@@H]1CN(Cc2ccc(Oc3ccc(C)cc3)nc2)CCO1 [Example 29] | 194 | 1.8 | 3 |  |
| CNC(=O)[C@@H]1CN(Cc2ccc(Oc3ccccc3F)nc2)CCO1 [Example 19] | 199 | 5.2 | -6.3 | not showing any significant inhibition |
| CNC(=O)[C@@H]1CN(Cc2ccc(Oc3ccccc3Cl)nc2)CCO1 [Example 17] | 188 | 22 | -4.3 |  |
